This assay has as its target Complement factor D (Homo sapiens, UniProt P00746). The assay can be described thus: Human Factor D Assay: Human Factor D (purified from human serum, Complement Technology, Inc.) at 80 nM final concentration is incubated with test compound at various concentrations for 5 minutes at room temperature in 50 mM Tris, 1M NaCl, pH 7.5. A synthetic substrate Z-L-Lys-SBzl and DTNB (Ellman's reagent) are added to final concentrations of 100 μM each. Absorbance at 405 nm (A405) is recorded at 30 second intervals for 30 minutes using a microplate spectrophotometer. IC50values are calculated by nonlinear regression of complement Factor D reaction rates as a function of test compound concentration.

IC50 data for 2 compounds are collected here from ChEMBL document CHEMBL5729705, “Amide compounds for treatment of immune and inflammatory disorders” (2023).

Sequence of Complement factor D (P00746 whole entry): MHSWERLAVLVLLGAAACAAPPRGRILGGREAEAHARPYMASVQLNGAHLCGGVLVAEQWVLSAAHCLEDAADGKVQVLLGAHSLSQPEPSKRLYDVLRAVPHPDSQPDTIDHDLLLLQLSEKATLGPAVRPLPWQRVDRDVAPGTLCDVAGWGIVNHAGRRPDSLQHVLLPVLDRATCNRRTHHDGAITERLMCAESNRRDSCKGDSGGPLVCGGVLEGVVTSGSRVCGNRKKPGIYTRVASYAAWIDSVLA

Consider `Cc1cccc(CC(O)[C@H]2C[C@@H](F)CN2C(=O)Cn2cc(C(N)=O)c3cc(C(=O)NS(=O)(=O)C4CC4)ccc32)n1` (some centres not stated), for which the IC50 is more than 10 µM.

For `Cc1cccc(CC(O)[C@@H]2C[C@@H](F)CN2C(=O)Cn2cc(C(N)=O)c3cc(C(=O)NS(=O)(=O)C4CC4)ccc32)n1` (some centres not stated), the half-inhibitory concentration (IC50) was more than 10 µM.
